The values that follow come from patent publication US10407423B2, “Compounds as inhibitors of DNA methyltransferases” (FUNDACIÓN PARA LA INVESTIGACIÓN MÉDICA APLICADA, priority 2015, dated 2019).

pIC50: −log10 of the molar value.

One assay concerns the target human G9a enzyme (Homo sapiens (Human), UniProt Q96KQ7). In words: G9a enzyme activity assay (TR-FRET). The settings on record: 1 hour at room temperature. The assay is classed as biochemical. As for the experimental part:
G9a Enzyme Activity Assay
The biochemical assay to measure G9a enzyme activity relies on time-resolved fluorescence energy transfer (TR-FRET) between europium cryptate (donor) and XL665 (acceptor). TR-FRET is observed when biotinylated histone monomethyl-H3K9 peptide is incubated with cryptate-labeled anti-dimethyl-histone H3K9 antibody (CisBio Cat#61KB2KAE) and streptavidin XL665 (CisBio Cat#610SAXLA), after enzymatic reaction of G9a.
The human G9a enzyme expressed in a baculovirus infected Sf9 cell expression system was obtained from BPS Biosciences (Cat. #51001). Enzyme activity assay was carried out in a white 384-well plate in a final volume of 20 μl, as follow: • 4 μl of vehicle or studied compound 2.5× concentrated prepared in assay buffer (50 mM Tris-HCl, 10 mM NaCl, 4 mM DTT, 0.01% Tween-20 pH9). Final percentage of DMSO was 0.5%. • 2 μl of 1 nM G9a enzyme diluted in assay buffer. Final concentration was 0.2 nM. • Start the reaction by adding 4 μl of substrate mixture containing 20 μM S-adenosylmethionine and 40 nM biotinylated histone monomethyl-H3K9 peptide. • Reaction was carried out during 1 hour at room temperature. • Enzyme activity was stopped by adding 5 μl of cryptate-labeled anti-dimethyl-histone H3K9 antibody. Final concentration 150 nM. • Then, add 5 μl of streptavidin XL665 beads. Final concentration of 16 μM. • Read the plate after 1 hour of incubation at room temperature.
(§1) For each well, fluorescence was measured at 620 nm and 665 nm. A ratio (665 nm/620 nm) was then calculated in order to minimize medium interferences. Positive control was obtained in the presence of the vehicle of the compounds. Negative control was obtained in the absence of G9a enzyme activity. Calculated IC50 values were determined using GraphPrism using 4-parameters inhibition curve.

Another assay addresses human DNMT1 (Homo sapiens (Human), UniProt P26358). Description: DNMT1 enzyme activity assay (TR-FRET, EPIgeneous methyltransferase assay). The assay is classed as biochemical. Conditions: 15 minutes at 37° C. The protocol:
DNMT1 Enzyme Activity Assay
The biochemical assay to measure DNMT1 enzyme activity relies on time-resolved fluorescence energy transfer (TR-FRET) between lumi4-Tb (donor) and d2 (acceptor) using the EPlgeneous methyltransferase assay (CisBio Cat#62SAHPEB). TR-FRET is observed when antibody specific to S-adenosylhomocysteine labeled with Lumi4-Tb is incubated with d2-labeled S-adenosylhomocysteine. TR-FRET signal is inversely proportional to the concentration of SAH, product of DNMT1 enzyme activity, in the sample. The human DNMT1 was obtained from Reaction Biology Corp. (Cat# DMT-21-124).
Enzyme activity assay was carried out in a white 384-well plate in a final volume of 20 μl, as follow: • 4 μl of vehicle or studied compound 2.5× concentrated prepared in assay buffer (50 mM Tris-HCl, 1 mM EDTA, 1 mM DTT, 0.1% Triton X-100, 5% glycerol pH 7.5). Final percentage of DMSO was 0.5%. • 2 μl of […] DNMT1 enzyme diluted in assay buffer. Final concentration was 20 nM. • Start the reaction by adding 4 μl of substrate mixture containing 1 μM S-adenosylmethionine and 1 μM poly-deoxy inosine poly-deoxy cytosine (pdI-pdC) DNA. • Reaction was carried out during 15 minutes at 37° C. • Enzyme activity was stopped by adding 2 μl of buffer one of the EPIgeneous methyltransferase assay. • After 10 minutes at room temperature, it was added 4 μl of antibody specific to S-adenosylhomocysteine labeled with Lumi4-Tb 50× diluted in buffer two of the EPIgeneous methyltransferase assay. • Add 4 μl of d2-labeled S-adenosylhomocysteine 31× diluted in buffer two of the EPIgeneous methyltransferase assay. • Read the plate after 1 hour of incubation at room temperature.
as §1
(In general: TR-FRET usually uses a lanthanide donor and a delayed reading to cut background.)

The test system of assay [1] is CEMO-1 cells (acute lymphocytic leukemia, ALL). In words: Cell proliferation assay (CellTiter 96 Aqueous One), CEMO-1. The assay is classed as cell-based. Conditions: CEMO-1 (ALL), 48 hours of treatment. The protocol: (§2) Cell proliferation was analyzed after 48 hours of in vitro treatment using the CellTiter 96 Aqueous One Solution Cell Proliferation Assay (Promega, Madison, W). This is a colorimetric method for determining the number of viable cells in proliferation.
(§3) For the assay, suspension cells were cultured by triplicate at a density of 1×10^6 cells/ml in 96-well plates (100.000 cells/well, 100 μl/well), except for OCI-Ly3 and OCI-Ly10 cell lines which were cultured at a density of 0.5×10^6 cells/ml (50,000 cells/well, 100 μl/well) and for HepG2, Hep3B and PLC/PRF/5 cell lines which were cultured at a density of 3000 cells/well, 100 μl/well). Adherent cells were obtained from 80-90% confluent flasks and 100 μl of cells were seeded at a density of 5000 cells/well in 96-well plates by triplicate. Before addition of the compounds, adherent cells were allowed to attach to the bottom of the wells for 12 hours. In all cases, only the 60 inner wells were used to avoid any border effects.
(§4) After 48 hours of treatment, plates with suspension cells were centrifuged at 800 g for 10 minutes and medium was removed. The plates with adherent cells were flicked to remove medium. Then, cells were incubated with 100 μl/well of medium and 20 μl/well of CellTiter 96 Aqueous One Solution reagent. After 1-3 hours of incubation at 37° C., absorbance was measured at 490 nm in a 96-well plate reader. The background absorbance was measured in wells with only cell line medium and solution reagent. Data was calculated as a percentage of total absorbance of treated cell/absorbance of non treated cells.
(§5) These cancer cell lines and primary cultures correspond to acute lymphocytic leukemia (ALL), CEMO-1, to activated B-cell-like diffuse large B-cell lymphoma (ABC-DLBCL), OCI-Ly3 and OCI-Ly10 and to hepatocellular carcinoma cells (HCC), HepG2, Hep3B and PLC/PRF/5.

For assay [2], the system named is HepG2 cells (hepatocellular carcinoma). Description: Cell proliferation assay (CellTiter 96 Aqueous One), HepG2. It is filed as cell-based. The settings on record: HepG2 (HCC), 48 hours of treatment. The protocol: as §2, §3, §4, §5
The subject of assay [3] is Hep3B cells (hepatocellular carcinoma). In words: Cell proliferation assay (CellTiter 96 Aqueous One), Hep3B. It is filed as cell-based. The settings on record: Hep3B (HCC), 48 hours of treatment. The protocol:
as §2, §3, §4, §5

Assay [4] deals with PLC/PRF/5 cells (hepatocellular carcinoma). Description: Cell proliferation assay (CellTiter 96 Aqueous One), PLC/PRF/5. It is filed as cell-based. Conditions: PLC/PRF/5 (HCC), 48 hours of treatment. As for the experimental part:
as §2, §3, §4, §5

In assay [5] the test system is OCI-Ly3 cells (ABC-DLBCL). Description: Cell proliferation assay (CellTiter 96 Aqueous One), OCI-Ly3. It is filed as cell-based. The settings on record: Homo sapiens, 48 hours of treatment. The protocol:
as §2
as §3, with “In all cases, only the 60 inner wells were used to avoid any border effects.” left out
(§6) After 48 hours of treatment, plates with suspension cells were centrifuged at 800 g for 10 minutes and medium was removed. […] After 1-3 hours of incubation at 37° C., absorbance was measured at 490 nm in a 96-well plate reader. The background absorbance was measured in wells with only cell line medium and solution reagent. Data was calculated as a percentage of total absorbance of treated cell/absorbance of non treated cells. […]

Assay [6] deals with OCI-Ly10 cells (ABC-DLBCL). In words: Cell proliferation assay (CellTiter 96 Aqueous One), OCI-Ly10. It is filed as cell-based. The settings on record: Homo sapiens, 48 hours of treatment. As for the experimental part:
as §2
as §3, with “In all cases, only the 60 inner wells were used to avoid any border effects.” left out
as §6

Sequence of human DNMT1 (P26358 whole entry): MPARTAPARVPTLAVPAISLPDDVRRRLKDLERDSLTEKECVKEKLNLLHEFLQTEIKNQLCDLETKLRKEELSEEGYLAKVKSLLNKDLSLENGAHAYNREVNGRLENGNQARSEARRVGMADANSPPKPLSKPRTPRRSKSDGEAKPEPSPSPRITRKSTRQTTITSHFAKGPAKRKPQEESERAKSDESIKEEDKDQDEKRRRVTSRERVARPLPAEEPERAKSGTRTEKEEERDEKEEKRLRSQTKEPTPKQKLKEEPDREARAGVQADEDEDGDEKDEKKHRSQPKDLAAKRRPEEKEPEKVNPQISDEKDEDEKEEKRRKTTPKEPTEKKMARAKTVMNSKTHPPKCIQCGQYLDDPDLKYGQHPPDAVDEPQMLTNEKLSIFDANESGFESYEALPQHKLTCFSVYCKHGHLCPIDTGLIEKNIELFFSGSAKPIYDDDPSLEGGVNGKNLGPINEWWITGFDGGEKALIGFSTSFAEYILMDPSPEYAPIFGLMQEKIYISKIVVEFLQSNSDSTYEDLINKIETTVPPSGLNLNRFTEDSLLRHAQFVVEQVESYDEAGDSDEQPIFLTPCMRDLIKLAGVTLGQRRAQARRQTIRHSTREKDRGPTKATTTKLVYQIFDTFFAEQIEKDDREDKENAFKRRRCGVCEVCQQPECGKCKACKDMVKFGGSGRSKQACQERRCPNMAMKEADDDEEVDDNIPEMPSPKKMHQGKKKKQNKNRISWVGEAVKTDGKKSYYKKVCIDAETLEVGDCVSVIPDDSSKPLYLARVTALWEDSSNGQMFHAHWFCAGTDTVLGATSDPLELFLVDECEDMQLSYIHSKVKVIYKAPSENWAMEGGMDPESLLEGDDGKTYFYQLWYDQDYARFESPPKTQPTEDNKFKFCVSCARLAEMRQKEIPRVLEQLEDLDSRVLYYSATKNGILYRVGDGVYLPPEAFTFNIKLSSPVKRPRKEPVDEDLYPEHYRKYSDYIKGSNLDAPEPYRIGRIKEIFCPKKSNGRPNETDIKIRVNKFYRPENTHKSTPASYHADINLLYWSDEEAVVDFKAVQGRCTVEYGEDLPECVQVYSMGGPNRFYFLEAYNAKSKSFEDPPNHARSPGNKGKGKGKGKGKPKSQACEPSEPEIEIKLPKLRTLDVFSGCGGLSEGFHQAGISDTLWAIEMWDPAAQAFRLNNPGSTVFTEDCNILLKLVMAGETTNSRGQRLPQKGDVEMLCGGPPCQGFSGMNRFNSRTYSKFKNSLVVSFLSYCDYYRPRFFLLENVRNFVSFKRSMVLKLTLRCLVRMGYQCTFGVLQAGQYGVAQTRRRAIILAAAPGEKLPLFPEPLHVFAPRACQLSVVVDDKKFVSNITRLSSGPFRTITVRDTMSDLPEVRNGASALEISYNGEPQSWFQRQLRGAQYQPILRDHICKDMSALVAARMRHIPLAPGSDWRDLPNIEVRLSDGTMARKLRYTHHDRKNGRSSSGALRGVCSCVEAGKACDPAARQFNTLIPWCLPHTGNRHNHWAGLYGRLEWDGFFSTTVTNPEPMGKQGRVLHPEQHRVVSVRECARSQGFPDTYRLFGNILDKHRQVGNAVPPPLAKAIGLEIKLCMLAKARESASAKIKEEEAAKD
Sequence of human G9a enzyme (Q96KQ7 whole entry): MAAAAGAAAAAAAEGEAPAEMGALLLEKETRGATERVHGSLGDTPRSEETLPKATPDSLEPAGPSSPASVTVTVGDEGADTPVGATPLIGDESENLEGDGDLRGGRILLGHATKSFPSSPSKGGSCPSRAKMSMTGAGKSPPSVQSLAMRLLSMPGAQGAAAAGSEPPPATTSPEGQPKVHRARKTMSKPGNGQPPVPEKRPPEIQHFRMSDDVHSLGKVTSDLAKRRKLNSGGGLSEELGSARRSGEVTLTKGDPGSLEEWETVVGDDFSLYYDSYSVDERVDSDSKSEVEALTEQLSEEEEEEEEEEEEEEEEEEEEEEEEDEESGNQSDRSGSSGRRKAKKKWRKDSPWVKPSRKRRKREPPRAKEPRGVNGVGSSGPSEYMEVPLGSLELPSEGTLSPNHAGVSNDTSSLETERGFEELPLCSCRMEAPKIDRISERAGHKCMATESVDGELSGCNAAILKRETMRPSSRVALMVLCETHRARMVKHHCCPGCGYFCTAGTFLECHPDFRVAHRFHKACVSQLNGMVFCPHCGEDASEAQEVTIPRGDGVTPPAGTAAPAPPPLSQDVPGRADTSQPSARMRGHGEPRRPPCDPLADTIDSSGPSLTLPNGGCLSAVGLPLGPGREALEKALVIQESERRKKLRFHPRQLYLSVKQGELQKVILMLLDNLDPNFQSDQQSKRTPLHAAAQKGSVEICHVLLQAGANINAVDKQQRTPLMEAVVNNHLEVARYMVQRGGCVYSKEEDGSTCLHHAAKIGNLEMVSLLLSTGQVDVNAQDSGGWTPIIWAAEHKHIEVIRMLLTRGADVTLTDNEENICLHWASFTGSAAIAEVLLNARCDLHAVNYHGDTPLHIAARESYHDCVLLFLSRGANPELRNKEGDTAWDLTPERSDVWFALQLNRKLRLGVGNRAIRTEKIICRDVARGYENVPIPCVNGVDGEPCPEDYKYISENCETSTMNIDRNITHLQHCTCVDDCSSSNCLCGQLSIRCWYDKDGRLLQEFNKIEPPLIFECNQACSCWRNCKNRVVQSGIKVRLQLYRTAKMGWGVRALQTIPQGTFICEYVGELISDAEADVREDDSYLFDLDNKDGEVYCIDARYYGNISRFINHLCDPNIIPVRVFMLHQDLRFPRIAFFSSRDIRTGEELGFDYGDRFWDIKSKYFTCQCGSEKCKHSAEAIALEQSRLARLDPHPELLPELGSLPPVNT

`COc1cc2c(cc1OCCCN1CCCC1)nc(-c1ccc(C)o1)c1cc(CC3CCN(C(C)C)CC3)[nH]c12` [Compound 1-03, 2-[(1-isopropyl-4-piperidyl)methyl]-8-methoxy-4-(5-methyl-2-furyl)-7-(3-pyrrolidin-1-ylpropoxy)-1H-pyrrolo[3,2-c]quinoline]: the negative-log IC50 (pIC50) (in general, the IC50 on a negative log10 scale, so that one unit is a factor of ten) on human G9a enzyme is 6.30 to 7.00; against human DNMT1, 6.00 to 6.30. Further, the GI50 (commonly the concentration that inhibits growth by half) was in the range of 1000 to 10000 nM in assay [1], 1000 to 10000 nM in assay [2] (Homo sapiens), 1000 to 10000 nM in assay [3] (Homo sapiens) and 100 to 1000 nM in assay [4] (Homo sapiens).

Turning to `COc1cc2c(cc1OCCCN1CCCC1)nc(-c1ccc(C)o1)c1cc(CC3CCN(C)CC3)[nH]c12` [Compound 1-02, 8-methoxy-4-(5-methyl-2-furyl)-2-[(1-methyl-4-piperidyl)methyl]-7-(3-pyrrolidin-1-ylpropoxy)-1H-pyrrolo[3,2-c]quinoline], the negative logarithm of the IC50 (pIC50) at human G9a enzyme and against human DNMT1 was 6.30 to 7.00 throughout. For the same compound, the GI50 in assay [1] lay in the range of 100 to 1000 nM; in assay [5], 100 to 1000 nM; in assay [6] it was 1000 to 10000 nM; in assay [2] (Homo sapiens), 1000 to 10000 nM; in assay [3] (Homo sapiens), 1000 to 10000 nM; in assay [4] (Homo sapiens) it was 100 to 1000 nM.

Take `COc1cc2c3c(c(-c4ccc(C)o4)nc2cc1OCCCN1CCCC1)CCC(CC1CCN(C2CCCCC2)CC1)N3` (stereo not shown) [Compound 2-12, 2-[(1-cyclohexyl-4-piperidyl)methyl]-9-methoxy-5-(5-methyl-2-furyl)-8-(3-pyrrolidin-1-ylpropoxy)-1,2,3,4-tetrahydrobenzo[h][1,6]naphthyridine]: the pIC50 is above 7.00 against human G9a enzyme and 6.00 to 6.30 against human DNMT1. Also, the 50% growth inhibitory concentration (GI50) in assay [1], in assay [2] (Homo sapiens) and in assay [3] (Homo sapiens) was 100 to 1000 nM throughout.

Turning to `COc1cc2c3c(c(-c4ccc(C)o4)nc2cc1OCCCN1CCCC1)CCC(CC1CCN(C2CC2)CC1)N3` (stereo not shown) [Compound 2-07, 2-[(1-cyclopropyl-4-piperidyl)methyl]-9-methoxy-5-(5-methyl-2-furyl)-8-(3-pyrrolidin-1-ylpropoxy)-1,2,3,4-tetrahydrobenzo[h][1,6]naphthyridine], the pIC50 at human G9a enzyme was above 7.00; on human DNMT1, 6.00 to 6.30. Besides, the 50% growth inhibitory concentration (GI50) in assay [1], in assay [2] (Homo sapiens), in assay [3] (Homo sapiens) and in assay [4] (Homo sapiens) was 1000 to 10000 nM throughout.

With `CCc1ccc(-c2nc3cc(OCCCN4CCCC4)c(OC)cc3c3[nH]c(CC4CCN(C)CC4)cc23)o1` [Compound 1-04], the negative logarithm of the IC50 (pIC50) at human G9a enzyme is 6.30 to 7.00; on human DNMT1, 6.00 to 6.30. For the same compound, the GI50 in assay [1] lay within 100 to 1000 nM; in assay [2] it was 1000 to 10000 nM; in assay [3], 1000 to 10000 nM; in assay [4], 100 to 1000 nM.

Consider `COc1cc2c3c(c(-c4ccc(C)o4)nc2cc1OCCCN1CCCC1)CCC(CC1CCN(C(C)C)CC1)N3` (stereo not shown) [Compound 2-08, 2-[(1-isopropyl-4-piperidyl)methyl]-9-methoxy-5-(5-methyl-2-furyl)-8-(3-pyrrolidin-1-ylpropoxy)-1,2,3,4-tetrahydrobenzo[h][1,6]naphthyridine], for which the figures for the pIC50 against human G9a enzyme and against human DNMT1 were above 7.00 and 6.00 to 6.30, respectively. Further, the concentration for 50% growth inhibition (GI50) in assay [1], in assay [2] (Homo sapiens), in assay [3] (Homo sapiens) and in assay [4] (Homo sapiens) was 1000 to 10000 nM in each case.

Consider `COc1cc2c3c(c(-c4ccc(C)o4)nc2cc1OCCCN1CCCC1)CCC(CC1CCN(C)CC1)N3` (stereo not shown) [Compound 2-06, 9-methoxy-5-(5-methyl-2-furyl)-2-[(1-methyl-4-piperidyl)methyl]-8-(3-pyrrolidin-1-ylpropoxy)-1,2,3,4-tetrahydrobenzo[h][1,6]naphthyridine], for which the pIC50 was above 7.00 against human G9a enzyme and 6.30 to 7.00 at human DNMT1. Moreover, the 50% growth inhibitory concentration (GI50) in assay [1] was 1000 to 10000 nM; in assay [2] (Homo sapiens), at least 10000 nM; in assay [3] (Homo sapiens) it was at least 10000 nM; in assay [4] (Homo sapiens), 1000 to 10000 nM.
